Test results reported in patent US11236086B2, “Substituted pyrrolopyridines as inhibitors of activin receptor-like kinase” (BLUEPRINT MEDICINES CORPORATION, priority 2017, dated 2022).

Legend:
[1] = molecular target: T1, ALK2R206H (mutant ALK2, N-terminally tagged with GST) (Homo sapiens, UniProt Q04771, R206H); experiment: ALK binding assay (LANTHASCREEN TR-FRET competitive binding, displacement of Kinase Tracer 178); conditions: read-out: Binding Assay (IC50 class)
T1 construct: purchased Carna Bioscience or ThermoFisher 09-148 or PV6232
T1 sequence (Q04771 21-509 R206H): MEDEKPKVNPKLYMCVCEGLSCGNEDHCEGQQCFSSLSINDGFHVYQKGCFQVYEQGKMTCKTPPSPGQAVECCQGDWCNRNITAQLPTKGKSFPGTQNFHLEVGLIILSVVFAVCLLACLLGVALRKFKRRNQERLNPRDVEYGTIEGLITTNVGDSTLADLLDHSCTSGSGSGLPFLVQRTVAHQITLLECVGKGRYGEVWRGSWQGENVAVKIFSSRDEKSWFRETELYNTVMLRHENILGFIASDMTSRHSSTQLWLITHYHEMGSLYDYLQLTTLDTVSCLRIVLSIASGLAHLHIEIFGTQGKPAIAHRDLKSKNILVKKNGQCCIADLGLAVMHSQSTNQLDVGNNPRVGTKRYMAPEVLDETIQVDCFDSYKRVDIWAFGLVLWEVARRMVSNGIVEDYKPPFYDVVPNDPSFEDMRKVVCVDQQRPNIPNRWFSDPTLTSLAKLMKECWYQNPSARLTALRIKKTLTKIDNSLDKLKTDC
Outline: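 Competitive displacement of Kinase Tracer 178 (50 nM) from N-terminally GST-tagged mutant ALK2 R206H (2-5 nM) by compound, detected by TR-FRET with Eu-anti-GST antibody (4-10 nM). 30 min room temperature incubation, 1% DMSO final; normalized signal fitted to 4-parameter log dose response for IC50.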

[2] = molecular target: T2, human ALK2 R206H (Homo sapiens, UniProt Q04771, R206H); experiment: Cell-based ALK2-R206H cell activity assay (Smad1-Ser463/Ser465 phosphorylation by AlphaLISA in HEK293-ALK2-R206H cells); conditions: phospho-Smad1 AlphaLISA, read-out: Cell Line (Cell Assay, IC50 class)
T2 construct: expressed in transfected cells; host or cells: HEK293 (ATCC CRL1573), lentivirus transduction, blasticidin selection
T2 sequence (Q04771 21-509 R206H): T1 sequence (Q04771 21-509 R206H)
Outline: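 IC50 comes from a 10-point curve, scaled between DMSO and 1 μM LDN193189 controls, of lysate phospho-Smad1 (Ser463/465) measured by AlphaLISA. Compounds (top 10 μM or 1 μM, 3-fold steps, duplicates) were given 2-3 h to serum-starved HEK293 cells that stably express FLAG-tagged human ALK2 R206H.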

Compound | IC50 [1] | IC50 [2]
CCOC(=O)N1CCN(c2ccnc3[nH]c(-c4cnn(C)c4C#N)cc23)CC1 [Compound 70] | ≤ 10 nM | ≤ 100 nM
CCOC(=O)N1CCN(c2ccnc3[nH]c(-c4ccccn4)c(Cl)c23)CC1 [Compound 115] | ≤ 10 nM | ≤ 100 nM
CCN1CCN(c2ccc(-c3cc4c(N5CCN(C(=O)C6CC6)CC5)ccnc4[nH]3)cc2)CC1 [Compound 418] | ≤ 10 nM | ≤ 100 nM
O=C(OCC(F)F)N1CCN(c2ccnc3[nH]c(-c4nc5c(s4)COCC5)c(Cl)c23)CC1 [Compound 449] | ≤ 10 nM | ≤ 100 nM
O=C(OC1COC1)N1CCN(c2ccnc3[nH]c(-c4cnn(C5COC5)c4)cc23)CC1 [Compound 300] | ≤ 10 nM | 100 to 500 nM
CN(C)c1nc(-c2cc3c(N4CCN(C(=O)OC5COC5)CC4)ccnc3[nH]2)cn1C [Compound 310] | ≤ 10 nM | ≤ 100 nM
O=C(C1CC1)N1CCN(c2ccnc3[nH]c(-c4ccc(C5(F)CCCNC5)cc4)cc23)CC1 (stereo not shown) [Compound 390] | ≤ 10 nM | ≤ 100 nM
CCOC(=O)N1CCN(c2ccnc3[nH]c(-c4ccc(C(C)(C)C#N)cn4)cc23)CC1 [Compound 282] | ≤ 10 nM | ≤ 100 nM
COC1(c2ccc(-c3cc4c(N5CCN(C(=O)OC6COC6)CC5)ccnc4[nH]3)c(C#N)c2)CCOCC1 [Compound 472] | ≤ 10 nM | ≤ 100 nM
Cn1cc(-c2cc3c(N4CCN(C(=O)OC5CCOCC5)CC4)ccnc3[nH]2)cn1 [Compound 234] | ≤ 10 nM | 100 to 500 nM
CCOC(=O)N1CCN(c2ccnc3[nH]c(-c4cn(C)nc4Cl)cc23)CC1 [Compound 122] | ≤ 10 nM | 100 to 500 nM
Cc1nc(-c2[nH]c3nccc(N4CCN(C(=O)OC5COC5)CC4)c3c2C#N)cn1C [Compound 288] | ≤ 10 nM | ≤ 100 nM
O=C(OC1COC1)N1CCN(c2ccnc3[nH]c(-c4cnn(C(F)F)c4)cc23)CC1 [Compound 279] | ≤ 10 nM | ≤ 100 nM
Cc1c(-c2cnn(C)c2)[nH]c2nccc(N3CCN(C(=O)OC4CCC4)CC3)c12 [Compound 140] | ≤ 10 nM | ≤ 100 nM
Cn1cnc(-c2[nH]c3nccc(N4CCN(C(=O)OC5CCC5)CC4)c3c2C#N)c1 [Compound 199] | ≤ 10 nM | ≤ 100 nM
Cn1cc(-c2cc3c(N4CCN(C(=O)C5CCOCC5)CC4)ccnc3[nH]2)cn1 [Compound 144] | ≤ 10 nM | > 500 nM
O=C(OC1COC1)N1CCN(c2ccnc3[nH]c(-c4cccnc4)cc23)CC1 [Compound 67] | ≤ 10 nM | 100 to 500 nM
CC1OCC1OC(=O)N1CCN(c2ccnc3[nH]c(-c4cnn(C)c4)cc23)CC1 (stereo not shown) [Compound 155] | ≤ 10 nM | > 500 nM
CO[C@H]1C[C@H](OC(=O)N2CCN(c3ccnc4[nH]c(-c5cnn(C)c5)cc34)CC2)C1 [Compound 232] | ≤ 10 nM | ≤ 100 nM
CCOC(=O)N1CCN(c2ccnc3[nH]c(-c4ccn(C)n4)cc23)CC1 [Compound 12] | ≤ 10 nM | 100 to 500 nM
N#Cc1c(-c2cn3c(n2)CCC3)[nH]c2nccc(N3CCN(C(=O)OC4COC4)CC3)c12 [Compound 342] | ≤ 10 nM | ≤ 100 nM
Cc1csc(-c2cc3c(N4CCN(C(=O)OC5COC5)CC4)ccnc3[nH]2)n1 [Compound 173] | ≤ 10 nM | 100 to 500 nM
Cn1cc(-c2cc3c(N4CCN(C(=O)[C@H]5CC[C@H](C#N)CC5)CC4)ccnc3[nH]2)cn1 [Compound 278] | ≤ 10 nM | ≤ 100 nM
Cn1cnc(-c2[nH]c3nccc(N4CCN(C(=O)O[C@H]5C[C@H](F)C5)CC4)c3c2C#N)c1 [Compound 297] | ≤ 10 nM | ≤ 100 nM

Compound | IC50 [1] | IC50 [2]
Cn1cnc(-c2cc3c(N4CCN(C(=O)O[C@@H]5CCC5(F)F)CC4)ccnc3[nH]2)c1 [Compound 264] | ≤ 10 nM | ≤ 100 nM
CCOC(=O)N1CCN(c2ccnc3[nH]c(-c4ncc(CC)s4)cc23)CC1 [Compound 113] | ≤ 10 nM | ≤ 100 nM
CCOC(=O)N1CCN(c2ccnc3[nH]c(-c4cnn(C)c4)c(C#N)c23)CC1 [Compound 68] | ≤ 10 nM | ≤ 100 nM
CCc1ccc(-c2cc3c(N4CCN(C(=O)C5CC5)CC4)ccnc3[nH]2)cc1 [Compound 52] | 10 to 50 nM | 100 to 500 nM
Cn1cc(-c2[nH]c3nccc(N4CCN(C(=O)O[C@H]5C[C@H](F)C5)CC4)c3c2C#N)cn1 [Compound 295] | ≤ 10 nM | ≤ 100 nM
O=C(OC1COC1)N1CCN(c2ccnc3[nH]c(-c4ccc(C5(O)CCOCC5)cc4)cc23)CC1 [Compound 445] | ≤ 10 nM | ≤ 100 nM
COc1ccc(-c2cc3c(N4CCN(C(=O)[C@H]5CC[C@H](O)CC5)CC4)ccnc3[nH]2)cc1 [Compound 349] | ≤ 10 nM | ≤ 100 nM
Cn1cc(-c2cc3c(N4CCN(C(=O)[C@@H]5C[C@H]5F)CC4)ccnc3[nH]2)cn1 [Compound 37] | ≤ 10 nM | ≤ 100 nM
O=C(OC1COC1)N1CCN(c2ccnc3[nH]c(-c4cscn4)cc23)CC1 [Compound 112] | ≤ 10 nM | ≤ 100 nM
Cc1nc(-c2cc3c(N4CCN(C(=O)OCC(F)F)CC4)ccnc3[nH]2)cn1C [Compound 190] | ≤ 10 nM | ≤ 100 nM
Cc1nc(-c2[nH]c3nccc(N4CCN(C(=O)OC5CCC5(F)F)CC4)c3c2C#N)cn1C (stereo not shown) [Compound 413] | ≤ 10 nM | ≤ 100 nM
O=C(OC1COC1)N1CCN(c2ccnc3[nH]c(-c4cn5c(n4)COCC5)cc23)CC1 [Compound 302] | ≤ 10 nM | ≤ 100 nM
CCn1cnc(-c2cc3c(N4CCN(C(=O)OC5COC5)CC4)ccnc3[nH]2)c1 [Compound 146] | ≤ 10 nM | ≤ 100 nM
CCc1csc(-c2cc3c(N4CCN(C(=O)OC5COC5)CC4)ccnc3[nH]2)n1 [Compound 251] | ≤ 10 nM | 100 to 500 nM
Cn1cc(-c2cc3c(N4CCN(C(=O)OC5CC5)CC4)ccnc3[nH]2)cn1 [Compound 30] | ≤ 10 nM | ≤ 100 nM
CC(C)(O)c1cnc(-c2cc3c(N4CCN(C(=O)OC5COC5)CC4)ccnc3[nH]2)s1 [Compound 377] | ≤ 10 nM | ≤ 100 nM
N#Cc1c(-c2cn(C(F)F)cn2)[nH]c2nccc(N3CCN(C(=O)OC4COC4)CC3)c12 [Compound 375] | ≤ 10 nM | ≤ 100 nM
CC(C)(O)c1nc(-c2cc3c(N4CCN(C(=O)OC5COC5)CC4)ccnc3[nH]2)cs1 [Compound 378] | ≤ 10 nM | 100 to 500 nM
CCN1CC[C@@H](c2ccc(-c3cc4c(N5CCN(C(=O)C6CC6)CC5)ccnc4[nH]3)cc2)C(F)(F)C1 [Compound 458] | ≤ 10 nM | ≤ 100 nM
N#Cc1ccc(-c2cc3c(N4CCN(C(=O)OC5COC5)CC4)ccnc3[nH]2)cc1 [Compound 188] | ≤ 10 nM | ≤ 100 nM
Cn1ncc(-c2cc3c(N4CCN(C(=O)OC5COC5)CC4)ccnc3[nH]2)c1C(F)F [Compound 336] | ≤ 10 nM | 100 to 500 nM
N#Cc1cnc(-c2cc3c(N4CCN(C(=O)OC5COC5)CC4)ccnc3[nH]2)nc1 [Compound 198] | ≤ 10 nM | 100 to 500 nM
Cc1nc(-c2[nH]c3nccc(N4CCN(C(=O)OC5CC(F)(F)C5)CC4)c3c2C#N)cn1C [Compound 412] | ≤ 10 nM | ≤ 100 nM
